What all share (assay): Agar Dilution Test (NCCLS), MIC
Type in all cases: cell-based

Test [1] deals with Klebsiella edwardsii, strain ATCC 10896. The following applies: ATCC10896, Example 48 tested in form of the hydrochloride. An excerpt: (§1) In particular, the active compounds of the invention show antimicrobial, e.g. antibacterial, activity against e.g. gram negative and gram positive bacteria, e.g. […] bacteria such as Pseudomonas, e.g. Pseudomonas aeruginosa; Escherichia, e.g. Escherichia coli; Enterobacter, e.g. Enterobacter cloacae; Klebsiella, e.g. Klebsiella edwardsii, Klebsiella pneumoniae; Enterococcus, e.g. Enterococcus faecalis; Moraxella, e.g. Moraxell catarrhalis; Streptococcus, e.g. Streptococcus pneumoniae, Streptococcus pyogenes; and Staphylococcus, e.g. Staphylococcus aureus; in vitro in the Agar Dilution Test according to National Commitee for Clinical Laboratory Standards (NCCLS) 1993, Document M7-A3Vol.13, No. 25: “Methods for dilution Antimicrobial Susceptibility Tests for Bacteria that Grow Aerobically—Third Edition, Approved Standard”. […] The active compounds of the invention show an surprising overall activity spectrum.

Test [2] concerns Enterobacter cloacae strains.
Description: as §1

Test [3] relates to E. coli strain ATCC 10536. The note with it: Escherichia coli, ATCC10536.
Description: as §1

Test [4] deals with E. coli strain ATCC 35218. The following applies: Escherichia coli, ATCC35218.
Description: as §1

Molecules are shown by their SMILES. Values after ≈ are worked out from the molar mass of the structure shown. Bounds are passed on as bounds.

Here are results for two compounds from patent publication US6440957B1, “Cephalosporines having cyclic aminoguanidine substituents as antibiotics” (Biochemie Gesellschaft m.b.H., priority 1998, dated 2002).

Consider `CC(C)(O/N=C(\C(=O)N[C@@H]1C(=O)N2C(C(=O)[O-])=C(C[n+]3ccccc3)CS[C@H]12)c1csc(N)n1)C(=O)O` [ceftazidime, reference compound], for which the minimal inhibitory concentration (MIC) in test [1] was ~1.6 µg/mL (≈ 2.93 µM).

As to `CCN1CCN(N=CC2=C(C(=O)O)N3C(=O)C(NC(=O)/C(=N\OCF)c4nsc(N)n4)[C@H]3SC2)C1=NC` (some centres unmarked) [Example 48, 7-{[(5-amino-1,2,4-thiadiazole-3-yl)-(Z)-(fluoromethoxyimino)-acetyl]amino}-3-{[(3-ethyl-2-methylimino-imidazolidine-1-yl)imino]methyl}-3-cephem-4-carboxylic acid], the MIC was < 0.0125 µg/mL in test [2], ~0.8 µg/mL (≈ 1.44 µM) in test [1], < 0.0125 µg/mL in test [3] and < 0.0125 µg/mL in test [4].
